Experimental data: patent EP0066918A1 (THE PROCTER & GAMBLE COMPANY, priority 1981, dated 1982)
“And” between values parts separate entries of the source, which are not always exact repeats. Identical values can stand only once.

Tests used:
[1] = tested on: aspirin-induced gastric lesions; experiment: animal or person; type: in vivo, Male Sprague-Dawley rats; settings: for inhibition in vivo at 125 mg/kg: Rattus norvegicus, po, 2 h, purine derivative dose 125 mg/kg with 125 mg/kg aspirin, read-out: % Reduction in Lesions; for minimization of gastric damage (statement in words): general statement in the description, high dosage = anti-inflammatory:purine ratios from about 1:1.5 to about 1:4; for reduction in lesions / lesion reduction: both 125 mg/kg
Protocol: For these experiments, the test materials were suspended in 0.5% methyl cellulose aqueous solutions. The pH of the aspirin solution was 2.7 and the pH of the solutions containing the purine materials was adjusted to pH 2.7 using HC1.
Male Sprague-Dawley rats were obtained (approximate weight = 150 grams each) and allowed to acclimate for at least 4 days. During this period the animals were allowed Purina Rat Chow and,tap water ad libitum. The animals were food fasted about 18 hours prior to dosing; during this period water was provided ad libitum.
The rats were dosed by oral gavage using a #8 catheter attached to a 1 cc syringe. The animals were dosed and sacrificed according to a predetermined schedule (the dosing order was determined at random prior to starting each experiment). After dosing, the animals were also water fasted.
The rats were sacrificed, either by C02 inhalation or cervical dislocation, two hours after dosing. Their stomachs were removed intact and placed on plastic-backed absorbent paper. The stomachs were then opened along the greater curvature, the fundus and esophagus were removed and the stomach was spread over a piece of white cardboard, using cotton-tipped applicators to level the rugae. The stomachs were then examined, using a dissecting microscope at 7X magnification, and the length of each lesion present was determined using a calibrated reticule.
In this table, N indicates the number of rats tested for the stated dosage.
In other experiments aspirin and adenosine were dosed at separate times.

[2] = Toxicity (statement only, no method given); settings: no data given
[3] = tested on: occult blood loss from the G.I. tract; experiment: Occult blood loss from the G.I. tract of rats (Fe labeled ferrous citrate, 24 h feces collection); type: in vivo, male Sprague-Dawley rats; settings: Adenosine 0, oral
Protocol: In addition to reducing macroscopic lesions in the stomach produced by aspirin ingestion, adenosine was also found to reduce occult blood loss from the G.I. tract of rats. In these experiments, male Sprague-Dawley rats were injected i.v. with […] Fe labeled ferrous citrate. Eight days after injection, feces were collected for 24 hours to establish base line data. The rats were then dosed orally with aspirin or aspirin-adenosine mixtures, as suspensions in 0.5% methylcellulose, and the feces were again collected for 24 hours. The rats were fasted during the 24-hour pre- dose period and for 2 hours after drug dosing.

[4] = tested on: Aspirin-induced damage in dogs; experiment: Aspirin-induced gastric damage in dogs, endoscopy; type: in vivo, male beagles; settings: avg. dose aspirin 97.8-101 mg/kg, adenosine 100 mg/kg simultaneously, cimetidine 30 mg/kg about 1 hour before
Protocol: Fasted male beagles were orally dosed with tablets of aspirin, aspirin plus adenosine, or aspirin plus cimetidine. The aspirin and adenosine were dosed simultaneously. The cimetidine was dosed approximately 1 hour before the aspirin; the dose level of cimetidine was 5 times that needed to give a 90% reduction in acid secretion. Approximately 19 hours later, the dogs were again dosed and 4 hours later their stomachs were examined by endoscopy. The incidence of erosions was recorded and the overall gastric damage assessed subjectively, using an arbitrary grading scale.

[5] = tested on: aspirin-induced gastric damage; experiment: Aspirin-induced gastric lesions in rats, adenosine injected i.p. 15 minutes prior to oral aspirin; type: in vivo; settings: 125 mg/kg aspirin (p.o.) alone
Protocol: Parenteral administration of adenosine was also found to be protective against aspirin-induced gastric damage, as illustrated by the following experiment.
Rats, chosen and prepared as. above, were dosed with i.p. injections of adenosine in 0.9% sterile physiological saline solution, adjusted to pH 7 with IN NaOH. The adenosine solution was injected 15 minutes prior to an oral dose of 125 mg/kg aspirin.

SMILES | inhibition in vivo at 125 mg/kg ([1]; vs aspirin-alone control) [%] | minimization of gastric damage (statement in words) [1] | further results
OC[C@H]1O[C@@H](n2cnc3c2ncn2ccnc32)[C@H](O)[C@@H]1O [1,N^6-ethenoadenosine] | 50 | work only at relatively high dosage levels | 
Cn1cnc2c(ncn2[C@@H]2O[C@H](CO)[C@@H](O)[C@H]2O)c1=N [1-methyl adenosine] |  |  | % Reduction in Lesions ([1]; purine derivative dose 25 mg/kg with 125 mg/kg aspirin, vs aspirin-alone control): 16%
CC1(C)O[C@@H]2[C@H](O1)[C@@H](CO)O[C@H]2n1cnc2c(N)ncnc21 [2',3'-isopropylidine adenosine] | 95 |  | 
Nc1ncnc2c1ncn2[C@H]1C[C@H](O)[C@@H](COP(=O)(O)O)O1 [2'-deoxy-adenosine-5'-mono-phosphate] | 16 |  | 
Nc1ncnc2c1ncn2[C@H]1C[C@H](O)[C@@H](CO)O1 [2'-deoxyadenosine] | 64 |  | 
Nc1ncnc2c1ncn2[C@@H]1O[C@H](CO)C[C@H]1O [3'-deoxyadenosine] | -47 |  | 
CSC[C@H]1O[C@@H](n2cnc3c(N)ncnc32)[C@H](O)[C@@H]1O [5'-deoxy-5'-methylthioadenosine] | -102 |  | 
Nc1ncnc2c1nnn2[C@@H]1O[C@H](CO)[C@@H](O)[C@H]1O [8-azaadenosine] | 60 |  | 
Nc1ncnc2c1nc(Br)n2[C@@H]1O[C@H](CO)[C@@H](O)[C@H]1O [8-bromoadenosine] | 76 |  | 
Nc1ncnc2nc[nH]c12 [Adenine] | 94 | does work to minimize gastrointestinal damage | toxicity limits (statement in words) [2]: does not fall within the necessary toxicity limits
Nc1ncnc2c1ncn2[C@@H]1O[C@H](COP(=O)(O)OP(=O)(O)O)[C@@H](O)[C@H]1O [Adenosine-5'-diphosphate (ADP), adenosine-5'-diphosphate] | 50 | work only at relatively high dosage levels | 
Nc1ncnc2c1ncn2[C@@H]1O[C@H](COP(=O)(O)OP(=O)(O)OP(=O)(O)O)[C@@H](O)[C@H]1O [Adenosine-5'-triphosphonate (ATP), adenosine-5'-triphosphate] |  | work only at relatively high dosage levels | 
Nc1c2ncn([C@@H]3O[C@H](CO)[C@@H](O)[C@H]3O)c2nc[n+]1[O-] [Adenosine-N^1-oxide, adenosine-N^1-oxide] | 75 |  | 
NC(=O)NC1NC(=O)NC1=O (stereo not drawn) [Allantoin] | 30 |  | 
CC(=O)Oc1ccccc1C(=O)O [Aspirin, acetylsalicylic acid] |  |  | Lesion Length (mm) ± SEM ([1]; 125 mg/kg aspirin alone (control), oral, 2 h after dosing): 30.4 ±3.1 mm; Blood Loss in 24 hrs. (µl) + S.D. ([3]; Aspirin 125 mg/kg): 158 ± 46 µL; Blood Loss in 24 hrs. (µl) + S.D. ([3]; Aspirin 300 mg/kg): 198 ± 131 µL and 224 ± 98 µL; Avg. Damage Grade ([4]; arbitrary subjective grading scale): 16; Avg. In-cidence of Erosions ([4]; oral tablets, two doses about 19 h apart, endoscopy 4 h after second): 80%; Average Lesion Length (mm) ±SEM [5]: 36.1 ±10.8 mm
Nc1nc2c(ncn2[C@@H]2O[C@H](CO)[C@@H](O)[C@H]2O)c(=O)[nH]1 [Guanosine] | 41 | not useful | 
O=c1[nH]cnc2nc[nH]c12 [Hypoxanthine] | 13 |  | 
OC[C@H]1O[C@@H](n2cnc3c(O)ncnc32)[C@H](O)[C@@H]1O [Inosine] | 18 |  | 
Nc1ncnc2c1ncn2[C@@H]1O[C@H](CO)[C@@H](O)[C@H]1O [adenosine] |  |  | reduction in lesions ([1]; adenosine dosed 10 minutes after aspirin): < 10%; lesion reduction ([1]; adenosine dosed 10 minutes prior to aspirin): about 60%; lesion reduction ([1]; adenosine dosed 30 minutes prior to aspirin): about 45%; reduction in lesions ([1]; adenosine dosed simultaneously with aspirin): about 90%
Nc1nc2nc[nH]c2c(=O)[nH]1 [guanine] |  | not useful | 
